This experiment has as its target T1, TRPV3 N671Q mutant (Homo sapiens, UniProt Q8NET8, N671Q).
T1 construct: YFP or GFP; expressed in transfected cells; host or cells: HEK293T
T1 sequence (Q8NET8 1-790 N671Q): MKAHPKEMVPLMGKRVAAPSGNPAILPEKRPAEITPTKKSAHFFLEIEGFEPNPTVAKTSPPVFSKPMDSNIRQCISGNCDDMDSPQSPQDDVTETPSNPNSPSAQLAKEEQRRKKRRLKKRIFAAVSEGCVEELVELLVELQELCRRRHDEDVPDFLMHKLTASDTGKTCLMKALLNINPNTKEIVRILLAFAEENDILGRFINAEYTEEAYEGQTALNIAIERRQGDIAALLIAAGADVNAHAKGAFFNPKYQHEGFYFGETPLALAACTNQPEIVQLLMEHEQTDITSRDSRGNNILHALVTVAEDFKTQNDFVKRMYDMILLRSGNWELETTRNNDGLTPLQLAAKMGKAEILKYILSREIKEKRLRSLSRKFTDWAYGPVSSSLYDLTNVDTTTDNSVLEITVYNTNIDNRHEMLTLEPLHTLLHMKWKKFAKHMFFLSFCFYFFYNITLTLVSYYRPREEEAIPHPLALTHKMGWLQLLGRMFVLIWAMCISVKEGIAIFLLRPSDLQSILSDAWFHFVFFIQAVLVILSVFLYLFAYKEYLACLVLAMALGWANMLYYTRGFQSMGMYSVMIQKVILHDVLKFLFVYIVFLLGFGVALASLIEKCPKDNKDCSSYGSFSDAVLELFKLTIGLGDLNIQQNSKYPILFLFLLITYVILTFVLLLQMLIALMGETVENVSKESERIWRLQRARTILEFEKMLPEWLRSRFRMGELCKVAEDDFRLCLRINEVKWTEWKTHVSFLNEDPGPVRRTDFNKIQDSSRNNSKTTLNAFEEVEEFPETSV
Nature of the experiment: Whole-cell recording of TRPV3 N671Q mutant. Format: cell-based. From the text:
As we mentioned above, HCQ may act as a pore blocker of TRPV3. To probe the binding configuration of HCQ to TRPV3, we carried out molecular docking using Rosetta suite (https://rosettacommons.org) ([21]) and validated the docking models with point mutations in TRPV3 (Fig. 4A). […] Furthermore, when we introduced L670A to L591A mutant, we also observed a left shift on the concentration–response curve on this double mutant as compared to L591A mutant (Fig. 4H).
Figure 4 Residues of the pore domain are critical for HCQ inhibition on TRPV3.A, left panel, docking model of HCQ to the pore domain of TRPV3 structure (6uw4). Right panels, top view and side view of the HCQ-binding pocket. B-J, representative whole-cell recording of TRPV3 and mutants in response to 1 mM 2-APB, the mixture of 1 mM 2-APB and concentration gradients of HCQ with the holding potential of ± 80 mV. K, concentration–response curves of HCQ in WT TRPV3 and mutants (n = 3–5 cells). L, quantification of the inhibitory ratio of HCQ (100 μM) on WT, L591A, and N671Q. […]
All data from whole-cell recordings were analyzed in Igor Pro (WaveMetrics). IC50 values were determined by fitting the Hill equation to concentration-response relationships. […]

As usually defined, the inhibition is the percentage by which the read-out fell short of the control. Low values mean a response near the control, high ones a response far below the control. The IC50 is the midpoint of a concentration-inhibition curve. The low end stands for inhibition by little substance, the high end for a need for much substance.

Compound `CCN(CCO)CCCC(C)Nc1ccnc2cc(Cl)ccc12` (centres unmarked) [HCQ, hydroxychloroquine] had an inhibition at 100 µM (100 μM HCQ) of 27.8%. Also, the midpoint of inhibition (1 mM 2-APB, ± 80 mV), the IC50, lay at 133 ± 8.6 µM.

These data come from PMC11460631, “Inhibition of transient receptor potential vanilloid 3 channels by antimalarial hydroxychloroquine alleviates TRPV3-dependent dermatitis” (The Journal of Biological Chemistry, 2024).
